We go through 44 compounds from BindingDB's records for patent US9796704 (SYMPHONY EVOLUTION, INC., 2017).

Test in all cases: AlphaScreen Assay
For orientation: Bead proximity is the source of the signal in Alpha formats.

Test [1] deals with Vascular endothelial growth factor receptor 2 (Homo sapiens, UniProt P35968).
Description: (§1) In AlphaScreen, when the donor and acceptor beads are close in proximity, a series of photochemical events will give rise to a fluorescent signal upon light activation. Here we use biotinylated poly-(Glu, Tyr) 4:1 as the kinase substrate, streptavidin-coated donor beads and anti-phosphortyrosine antibody PY100-coated acceptor beads. […] Compounds, ATP, biotinylated poly-(Glu, Tyr) and kinases are mixed in a volume of 20 μL for 1 hr at ambient temperature using Greiner 384-well white clear bottom medium binding plates. Then 10 uL solution containing 15-30 mg/mL AlphaScreen beads, 75 mM Hepes, pH 7.4, 300 mM NaCl, 120 mM EDTA, 0.3% BSA and 0.03% Tween-20 is added to each well. After 2-16 hr incubation of the beads, plates are read in a Perkin Elmer AlphaQuest reader (available from PerkinElmer Life and Analytical Sciences, Inc., of Boston Mass.).
Test [2] has as its target Receptor tyrosine-protein kinase erbB-2 (Homo sapiens, UniProt P04626).
Description: as §1
The next test concerns the target Ephrin type-A receptor 2 (Homo sapiens, UniProt P29317).

The IC50 is the concentration needed to halve the response being measured. High values mean weaker potency, low ones greater potency.

Chain of Vascular endothelial growth factor receptor 2 (P35968 whole entry): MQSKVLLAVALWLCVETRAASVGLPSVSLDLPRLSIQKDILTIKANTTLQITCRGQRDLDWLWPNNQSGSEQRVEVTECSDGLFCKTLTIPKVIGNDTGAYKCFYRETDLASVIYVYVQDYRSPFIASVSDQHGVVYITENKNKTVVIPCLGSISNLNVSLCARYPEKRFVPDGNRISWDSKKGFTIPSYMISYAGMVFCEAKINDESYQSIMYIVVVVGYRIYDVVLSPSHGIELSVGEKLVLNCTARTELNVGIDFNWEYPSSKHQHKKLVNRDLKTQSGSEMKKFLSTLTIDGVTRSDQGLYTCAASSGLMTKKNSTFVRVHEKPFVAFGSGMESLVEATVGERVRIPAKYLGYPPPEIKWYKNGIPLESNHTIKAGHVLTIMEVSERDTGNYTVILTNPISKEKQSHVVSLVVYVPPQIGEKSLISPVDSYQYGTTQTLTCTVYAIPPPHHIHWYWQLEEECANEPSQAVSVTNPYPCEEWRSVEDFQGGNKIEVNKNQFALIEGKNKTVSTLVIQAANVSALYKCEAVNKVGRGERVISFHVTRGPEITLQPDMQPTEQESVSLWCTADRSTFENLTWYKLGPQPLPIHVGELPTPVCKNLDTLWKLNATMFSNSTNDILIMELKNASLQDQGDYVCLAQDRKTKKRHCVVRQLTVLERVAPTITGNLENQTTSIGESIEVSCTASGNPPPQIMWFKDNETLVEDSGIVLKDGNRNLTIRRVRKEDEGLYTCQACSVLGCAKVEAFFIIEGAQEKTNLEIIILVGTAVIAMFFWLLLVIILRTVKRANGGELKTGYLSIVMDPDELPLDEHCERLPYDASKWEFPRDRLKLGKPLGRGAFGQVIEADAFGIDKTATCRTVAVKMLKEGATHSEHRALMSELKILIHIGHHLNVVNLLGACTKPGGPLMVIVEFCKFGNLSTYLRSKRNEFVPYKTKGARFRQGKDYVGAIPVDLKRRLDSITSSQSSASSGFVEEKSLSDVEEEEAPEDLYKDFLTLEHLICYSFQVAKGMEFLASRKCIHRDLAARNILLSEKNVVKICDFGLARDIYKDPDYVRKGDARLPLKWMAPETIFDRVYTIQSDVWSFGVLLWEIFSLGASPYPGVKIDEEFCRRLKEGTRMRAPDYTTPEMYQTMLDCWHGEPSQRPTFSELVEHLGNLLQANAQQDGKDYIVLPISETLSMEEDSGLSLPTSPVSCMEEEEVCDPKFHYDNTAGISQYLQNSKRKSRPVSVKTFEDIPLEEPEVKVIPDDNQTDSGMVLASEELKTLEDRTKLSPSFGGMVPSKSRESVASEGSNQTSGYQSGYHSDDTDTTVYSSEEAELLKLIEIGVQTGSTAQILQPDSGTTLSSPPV
Chain of Ephrin type-A receptor 2 (P29317 whole entry): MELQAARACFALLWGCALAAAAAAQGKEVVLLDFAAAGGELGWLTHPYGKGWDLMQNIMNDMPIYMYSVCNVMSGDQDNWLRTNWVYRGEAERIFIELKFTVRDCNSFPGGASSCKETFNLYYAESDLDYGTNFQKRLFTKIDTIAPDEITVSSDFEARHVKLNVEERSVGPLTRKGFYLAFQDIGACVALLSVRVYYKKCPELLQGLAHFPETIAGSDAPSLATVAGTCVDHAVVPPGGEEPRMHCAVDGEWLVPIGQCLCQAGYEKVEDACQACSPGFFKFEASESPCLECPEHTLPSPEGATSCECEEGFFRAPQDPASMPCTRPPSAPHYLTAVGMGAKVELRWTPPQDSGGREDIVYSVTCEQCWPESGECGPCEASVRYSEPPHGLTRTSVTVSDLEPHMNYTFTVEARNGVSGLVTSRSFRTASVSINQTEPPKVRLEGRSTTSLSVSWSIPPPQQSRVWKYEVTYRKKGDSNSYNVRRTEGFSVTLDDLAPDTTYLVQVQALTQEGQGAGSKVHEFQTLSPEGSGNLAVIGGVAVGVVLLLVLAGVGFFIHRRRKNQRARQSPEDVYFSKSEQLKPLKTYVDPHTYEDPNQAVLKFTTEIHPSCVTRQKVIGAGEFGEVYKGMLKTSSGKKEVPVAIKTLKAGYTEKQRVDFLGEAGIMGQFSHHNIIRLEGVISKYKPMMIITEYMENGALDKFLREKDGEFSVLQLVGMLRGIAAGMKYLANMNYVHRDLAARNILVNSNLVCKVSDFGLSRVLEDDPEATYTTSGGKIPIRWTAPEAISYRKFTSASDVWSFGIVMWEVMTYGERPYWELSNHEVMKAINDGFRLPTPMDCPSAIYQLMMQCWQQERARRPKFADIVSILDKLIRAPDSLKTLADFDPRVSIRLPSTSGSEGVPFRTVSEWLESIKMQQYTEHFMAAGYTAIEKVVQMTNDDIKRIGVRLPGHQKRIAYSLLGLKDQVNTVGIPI
Chain of Receptor tyrosine-protein kinase erbB-2 (P04626 whole entry): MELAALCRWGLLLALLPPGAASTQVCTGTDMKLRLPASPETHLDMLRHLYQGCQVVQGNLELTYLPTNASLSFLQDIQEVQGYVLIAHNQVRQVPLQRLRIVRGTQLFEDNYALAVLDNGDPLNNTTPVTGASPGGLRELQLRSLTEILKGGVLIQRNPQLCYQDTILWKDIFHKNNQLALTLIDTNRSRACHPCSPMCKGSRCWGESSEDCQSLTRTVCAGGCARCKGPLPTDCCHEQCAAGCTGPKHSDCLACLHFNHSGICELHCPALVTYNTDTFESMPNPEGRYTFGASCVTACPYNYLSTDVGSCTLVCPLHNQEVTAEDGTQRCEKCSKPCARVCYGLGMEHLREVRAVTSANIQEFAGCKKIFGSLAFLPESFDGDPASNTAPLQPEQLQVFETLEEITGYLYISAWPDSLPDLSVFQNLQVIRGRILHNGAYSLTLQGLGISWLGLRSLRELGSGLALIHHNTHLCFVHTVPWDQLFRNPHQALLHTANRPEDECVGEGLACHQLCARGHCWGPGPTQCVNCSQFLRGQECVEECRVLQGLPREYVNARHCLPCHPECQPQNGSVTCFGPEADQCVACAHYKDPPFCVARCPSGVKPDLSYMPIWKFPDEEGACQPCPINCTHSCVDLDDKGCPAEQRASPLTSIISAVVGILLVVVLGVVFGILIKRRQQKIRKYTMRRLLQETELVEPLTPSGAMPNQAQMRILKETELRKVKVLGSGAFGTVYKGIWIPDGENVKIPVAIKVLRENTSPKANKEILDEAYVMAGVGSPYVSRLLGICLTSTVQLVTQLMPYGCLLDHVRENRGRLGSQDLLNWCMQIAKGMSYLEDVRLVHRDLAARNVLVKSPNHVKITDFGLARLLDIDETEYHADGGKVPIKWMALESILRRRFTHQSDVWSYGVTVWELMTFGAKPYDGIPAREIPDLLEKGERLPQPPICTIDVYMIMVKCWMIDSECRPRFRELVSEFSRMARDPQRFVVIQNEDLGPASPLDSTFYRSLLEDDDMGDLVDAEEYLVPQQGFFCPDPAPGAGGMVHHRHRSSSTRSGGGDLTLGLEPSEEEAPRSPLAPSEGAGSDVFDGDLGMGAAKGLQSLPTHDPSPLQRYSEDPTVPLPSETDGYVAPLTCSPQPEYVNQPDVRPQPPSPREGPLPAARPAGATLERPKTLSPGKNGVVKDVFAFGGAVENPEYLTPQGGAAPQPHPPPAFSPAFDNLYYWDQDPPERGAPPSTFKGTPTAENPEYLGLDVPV
Description for Ephrin type-A receptor 2: as §1

For the compound `COc1cc2c(Nc3ccc(Cl)c(Cl)c3)ncnc2cc1OCc1csc([C@@H]2CCCN2C)n1` [US9796704, Entry 266], the IC50 entry in test [1] and in test [2] was “in the range around 10.5 µM” each time.

Regarding `COc1cc2c(Nc3ccc(Cl)c(Cl)c3F)ncnc2cc1OCC1CO[C@@H]2[C@@H](OC)CO[C@H]12` (some centres undefined) [US9796704, Entry 43], in test [2], the IC50 entry is “in the range around 10.5 µM”. With `COc1cc2c(Nc3ccc(Cl)c(Cl)c3)ncnc2cc1OCC1CN(CCOCCO)CCO1` (centres undefined) [US9796704, Entry 275], the IC50 entry in test [1] and in test [2] was “in the range around 10.5 µM” each time. Turning to `COc1cc2c(Nc3ccc(Cl)c(Cl)c3)ncnc2cc1OCc1noc(-c2ccccc2OC)n1` [US9796704, Entry 227], the IC50 result in test [1] and in test [2] was “in the range around 0.525 µM” in each case. `COc1cc2c(Nc3ccc(Cl)c(Cl)c3)ncnc2cc1OCc1noc(-c2ccccc2)n1` [US9796704, Entry 235]: the IC50 result in test [2] is “in the range around 0.525 µM”.

For the compound `CCN1CCN(c2noc(COc3cc4ncnc(Nc5ccc(Cl)c(Cl)c5)c4cc3OC)n2)CC1` [US9796704, Entry 220], the IC50 result in test [1] and in test [2] was “in the range around 0.525 µM” throughout. Consider `COc1cc2c(Nc3ccc(Cl)c(Cl)c3)ncnc2cc1OC[C@@H]1CO[C@H]2[C@@H]1OC[C@@H]2OC` [US9796704, Entry 42], for which the IC50 entry in test [2] was “in the range around 10.5 µM”.

Regarding `COc1cc2c(Nc3ccc(Cl)c(Cl)c3)ncnc2cc1OCc1cc(Br)cc(Br)c1` [US9796704, Entry 232], the IC50 result in test [2] was “in the range around 0.525 µM”.

With `COc1cc2c(Nc3ccc(Cl)c(Cl)c3)ncnc2cc1OCc1csc2ccc(Cl)cc12` [US9796704, Entry 225], the IC50 result in test [1] and in test [2] was “in the range around 10.5 µM” in each case. `COCCN1CCOC(COc2cc3ncnc(Nc4ccc(Cl)c(Cl)c4)c3cc2OC)C1` (centres undefined) [US9796704, Entry 272]: the figures for the IC50 entry in test [1] and in test [2] were “in the range around 10.5 µM” and “in the range around 0.525 µM”, respectively. `COc1cc2c(Nc3ccc(Cl)c(Cl)c3)ncnc2cc1OCc1csc(C2CCCCN2C)n1` (centres undefined) [US9796704, Entry 250]: the IC50 result was “in the range around 0.525 µM” in test [1] and “in the range around 10.5 µM” in test [2]. As to `COc1cc2c(Nc3ccc(Cl)c(Cl)c3)ncnc2cc1OCc1nc([C@@H]2CCCN2C)no1` [US9796704, Entry 265], the IC50 entry in test [1] and in test [2] was “in the range around 10.5 µM” each time. For the compound `CCN1CCCC(c2nc(COc3cc4ncnc(Nc5ccc(Cl)c(Cl)c5)c4cc3OC)no2)C1` (centres undefined) [US9796704, Entry 239], the IC50 result in test [2] was “in the range around 10.5 µM”.

As to `COc1cc2c(Nc3ccc(Cl)c(Cl)c3)ncnc2cc1OCc1csc(CO)n1` [US9796704, Entry 246], the IC50 entry in test [1] and in test [2] was “in the range around 0.525 µM” in each case. With `COCCN1CCCOC(COc2cc3ncnc(Nc4ccc(Cl)c(Cl)c4)c3cc2OC)C1` (centres undefined) [US9796704, Entry 260], the IC50 result in test [1] is “in the range around 10.5 µM”; in test [2], “in the range around 0.525 µM”.

For the compound `COc1cc2c(Nc3ccc(Cl)c(Cl)c3)ncnc2cc1OCc1csc(N2CCNCC2)n1` [US9796704, Entry 262], the IC50 entry in test [1] and in test [2] was “in the range around 10.5 µM” each time.

For `COc1cc2c(Nc3ccc(Cl)c(Cl)c3)ncnc2cc1OCC1CN2CCOCC2CO1` (centres undefined) [US9796704, Entry 25], in test [2], the IC50 result was “in the range around 10.5 µM”. Regarding `COc1cc2c(Nc3ccc(Cl)c(Cl)c3)ncnc2cc1OCC1CN(CCCc2ccccc2)CCO1` (centres undefined) [US9796704, Entry 271], the IC50 result in test [1] was “in the range around 10.5 µM”; in test [2] it was “in the range around 0.525 µM”. `CCN1CCC(c2nc(COc3cc4ncnc(Nc5ccc(Cl)c(Cl)c5)c4cc3OC)cs2)CC1` [US9796704, Entry 242]: in test [2], the IC50 result is “in the range around 0.525 µM”. As for `COc1cc2c(Nc3ccc(Cl)c(Cl)c3)ncnc2cc1OCC1CN(C(C)C)CCO1` (centres undefined) [US9796704, Entry 270], the IC50 entry in test [1] and in test [2] was “in the range around 0.525 µM” each time. Take `CCN1CCCC(c2nc(COc3cc4ncnc(Nc5ccc(Cl)c(Cl)c5)c4cc3OC)cs2)C1` (centres undefined) [US9796704, Entry 254]: the IC50 result in test [1] is “in the range around 10.5 µM”; in test [2], “in the range around 0.525 µM”. `COc1cc2c(Nc3ccc(Cl)c(Cl)c3)ncnc2cc1OCc1nc(CN(C)C)no1` [US9796704, Entry 139]: the IC50 entry (on Ephrin type-A receptor 2; in test [1]) was “in the range around 0.525 µM” in each case. Consider `COc1cc2c(Nc3cccc(Cl)c3)ncnc2cc1O[C@@H]1CO[C@@H]2[C@H]1OC[C@H]2F` [US9796704, Entry 114], for which the IC50 entry against Ephrin type-A receptor 2 is “in the range around 0.525 µM”; in test [1] it was “in the range around 10.5 µM”. Regarding `COc1cc2c(Nc3ccc(Cl)c(Cl)c3)ncnc2cc1OCc1cc(C)on1` [US9796704, Entry 160], the IC50 entry (at Ephrin type-A receptor 2; in test [1]) was “in the range around 0.525 µM” throughout. For the compound `COc1cc2c(Nc3ccc(F)c(Cl)c3F)ncnc2cc1O[C@@H]1CO[C@@H]2[C@H]1OC[C@H]2F` [US9796704, Entry 137], the IC50 entry (at Ephrin type-A receptor 2; in test [1]) was “in the range around 0.525 µM” in each case. For the compound `COc1cc2c(Nc3ccc(Cl)c(Cl)c3)ncnc2cc1OCc1ccc2nonc2c1` [US9796704, Entry 163], the IC50 result (against Ephrin type-A receptor 2; in test [1]) was “in the range around 0.525 µM” in each case.

For the compound `COc1cc2c(Nc3ccc(Cl)c(Cl)c3)ncnc2cc1OCc1nc(-c2ccncc2)cs1` [US9796704, Entry 203], the IC50 result in test [2] was “in the range around 0.525 µM”.

`COc1cc2c(Nc3ccc(Cl)c(Cl)c3)ncnc2cc1OCc1csc([C@@H]2CSCN2)n1` [US9796704, Entry 248]: the IC50 result in test [1] and in test [2] was “in the range around 0.525 µM” each time. Turning to `COc1cc2c(Nc3ccc(Cl)c(Cl)c3)ncnc2cc1OCc1csc(-c2ccc(Cl)cc2)n1` [US9796704, Entry 223], the IC50 result in test [1] and in test [2] was “in the range around 0.525 µM” throughout. In the case of `COc1cc2c(Nc3ccc(Cl)c(Cl)c3)ncnc2cc1OCc1nccn1Cc1ccccc1` [US9796704, Entry 229], the IC50 result in test [1] and in test [2] was “in the range around 0.525 µM” in each case.

Regarding `CCN1CCCCC1c1nc(COc2cc3ncnc(Nc4ccc(Cl)c(Cl)c4)c3cc2OC)cs1` (centres undefined) [US9796704, Entry 253], the IC50 result in test [1] and in test [2] was “in the range around 10.5 µM” each time. As for `COc1cc2c(Nc3ccc(Cl)c(Cl)c3)ncnc2cc1OCc1nnc(-c2ccc(C)cc2)o1` [US9796704, Entry 228], the IC50 result in test [1] and in test [2] was “in the range around 0.525 µM” in each case. For `COc1cc2c(Nc3ccc(Cl)c(Cl)c3)ncnc2cc1OCc1noc(-c2c(C)noc2C)n1` [US9796704, Entry 224], the IC50 result in test [1] and in test [2] was “in the range around 0.525 µM” each time. Regarding `COc1cc2c(Nc3ccc(Cl)c(Cl)c3)ncnc2cc1OCC1CN(C)CCN1C` (centres undefined) [US9796704, Entry 268], the IC50 result was “in the range around 10.5 µM” in test [1] and “in the range around 0.525 µM” in test [2]. Take `COc1cc2c(Nc3ccc(Cl)c(Cl)c3)ncnc2cc1OCc1csc(-c2ccc(C(F)(F)F)cc2)n1` [US9796704, Entry 222]: the concentration for half-maximal inhibition (IC50) result in test [1] and in test [2] was “in the range around 0.525 µM” throughout.

Consider `COc1cc2c(Nc3cccc(Br)c3)ncnc2cc1O[C@@H]1CO[C@@H]2[C@H]1OC[C@H]2F` [US9796704, Entry 129], for which the IC50 entry (against Ephrin type-A receptor 2; in test [1]) was “in the range around 0.525 µM” in each case.

Turning to `COc1cc2c(Nc3ccc(Cl)c(Cl)c3)ncnc2cc1OCc1c(-c2ccccc2)nn(C)c1Cl` [US9796704, Entry 175], the IC50 result (against Ephrin type-A receptor 2; in test [1]) was “in the range around 0.525 µM” in each case.

Take `COc1cc2c(Nc3ccc(Cl)c(Cl)c3)ncnc2cc1OCC1CN(C(C)C)CCCO1` (centres undefined) [US9796704, Entry 261]: the IC50 entry in test [1] is “in the range around 10.5 µM”; in test [2], “in the range around 0.525 µM”.

On to `COc1cc2c(Nc3cccc(F)c3F)ncnc2cc1O[C@@H]1CO[C@@H]2[C@H]1OC[C@H]2F` [US9796704, Entry 92], for which the IC50 entry (on Ephrin type-A receptor 2; in test [1]) was “in the range around 0.525 µM” each time. On to `COc1cc2c(Nc3ccc(Cl)c(Cl)c3)ncnc2cc1OCC1CN(CCCCCC#N)CCO1` (centres undefined) [US9796704, Entry 277], for which the IC50 entry was “in the range around 10.5 µM” in test [1] and “in the range around 0.525 µM” in test [2]. Turning to `COc1cc2c(Nc3ccc(Cl)c(Cl)c3)ncnc2cc1OCc1nc(CN2CCOCC2)no1` [US9796704, Entry 143], the IC50 entry (at Ephrin type-A receptor 2; in test [1]) was “in the range around 0.525 µM” throughout.

In the case of `COc1cc2c(Nc3ccc(F)c(F)c3F)ncnc2cc1O[C@@H]1CO[C@@H]2[C@H]1OC[C@H]2F` [US9796704, Entry 84], the IC50 entry (at Ephrin type-A receptor 2; in test [1]) was “in the range around 0.525 µM” each time. Regarding `COc1cc2c(Nc3ccc(Cl)c(Cl)c3)ncnc2cc1OCc1noc(C2CCNCC2)n1` [US9796704, Entry 141], the IC50 result (against Ephrin type-A receptor 2; in test [1]) was “in the range around 0.525 µM” in each case. Take `COc1cc2c(Nc3ccc(C(F)(F)F)cc3Br)ncnc2cc1O[C@@H]1CO[C@@H]2[C@H]1OC[C@H]2F` [US9796704, Entry 125]: the half-maximal inhibitory concentration (IC50) result in test [2] is “in the range around 0.525 µM”.
